Values of other authors, collected in PMC8155022 (Scientific Reports, 2021).

Columns and labels:
[1] = system: activated CCR6+ T cells from human peripheral blood; parameters: method as in PMID 27905482; conditions: cited from earlier work
[2] = system: patients with moderate to severe plaque psoriasis; parameters: method as in earlier work; conditions: 4 weeks of treatment, cited from earlier work

Compound | IL-10 production [1] | IL-17A production [1] | reduction of IL-17A and IL-17F in patient serum [2] | efficacy in patients with moderate to severe plaque psoriasis ([2]; Phase 2a)
COc1nc2ccc([C@@](O)(c3ccc(C)nc3C)c3cnnn3C)cc2c(Cl)c1Cc1ccc(C(F)(F)F)cc1 [JNJ-54271074] | slightly increased | greatly reducing |  | 
CCS(=O)(=O)c1ccc(CNC(=O)c2cnc3c(c2)CN(C[C@H]2CC[C@H](C(F)(F)F)CC2)[C@H]3C(C)C)nc1 [VTP-43742] |  |  | up to 75% | showed efficacy
